Reference: BindingDB's records for doi:10.7270/Q2PK0DK8 (Nmmlsc, 2009)

What follows are molecules tested against Ras-related C3 botulinum toxin substrate 1 (Mus musculus, UniProt P63001) (assay: analog inhibition of wildtype Rac1 nucleotide binding – biochemical, oxadiazole analogs, multiplex bead flow cytometry, SAR follow-up (AID 2027)). Details: not given.

Question: With `COc1ccc(-c2noc(CCC(=O)N3CCN(c4cccc(F)c4)CC3)n2)cc1` [1-[4-(3-fluorophenyl)piperazin-1-yl]-3-[3-(4-methoxyphenyl)-1,2,4-oxadiazol-5-yl]propan-1-one] as the molecule, how does the EC50 read?
Answer: > 30000 nM

Question: For `COc1ccc(-c2noc(CCC(=O)N3CCN(c4ccccc4C)CC3)n2)cc1`, which EC50 is on record?
Answer: 1350 nM

Question: With `COc1ccc(-c2ccc(CCC(=O)N3CCN(c4cc(C)ccc4C)CC3)[nH]2)cc1` [1-[4-(2,5-dimethylphenyl)piperazin-1-yl]-3-[5-(4-methoxyphenyl)-1H-pyrrol-2-yl]propan-1-one] as the molecule, how does the EC50 read?
Answer: > 30000 nM

Question: For `Cc1ccc(C)c(N2CCN(C(=O)CCc3nc(-c4cccc(Br)c4)no3)CC2)c1` [KUC103367N], which EC50 is on record?
Answer: 1670 nM

Question: How did the EC50 turn out when `Cc1ccc(C)c(N2CCN(C(=O)CCc3nc(-c4cccc(Cl)c4)no3)CC2)c1` [UNM-0000306086] was run?
Answer: 4970 nM

Question: How did the EC50 turn out when `COc1ccc(-c2noc(CCC(=O)N3CCN(c4ccc(Cl)cc4)CC3)n2)cc1` [UNM-0000306121] was run?
Answer: > 30000 nM

Question: For `Cc1ccc(C)c(N2CCN(C(=O)CCc3nc(-c4cccc(C(F)(F)F)c4)no3)CC2)c1` [KUC103380N], which EC50 is on record?
Answer: 2500 nM

Question: Which EC50 does the source give for `Cc1ccc(C)c(N2CCN(C(=O)CCc3nc(-c4ccccc4Cl)no3)CC2)c1` [3-[3-(2-chlorophenyl)-1,2,4-oxadiazol-5-yl]-1-[4-(2,5-dimethylphenyl)-1-piperazinyl]-1-propanone] here?
Answer: 1190 nM

Question: `COc1ccc(-c2noc(CCC(=O)N3CCN(c4cccc(Br)c4)CC3)n2)cc1` [1-[4-(3-bromophenyl)-1-piperazinyl]-3-[3-(4-methoxyphenyl)-1,2,4-oxadiazol-5-yl]-1-propanone] was tested. Which EC50 did it give?
Answer: > 30000 nM

Question: Which EC50 does the source give for `Cc1ccc(-c2noc(CCC(=O)N3CCN(c4cc(C)ccc4C)CC3)n2)cc1` [1-[4-(2,5-dimethylphenyl)-1-piperazinyl]-3-[3-(4-methylphenyl)-1,2,4-oxadiazol-5-yl]-1-propanone] here?
Answer: 3200 nM

Question: Which EC50 does the source give for `COc1ccc(-c2cccc(CCC(=O)N3CCN(c4cc(C)ccc4C)CC3)c2)cc1` [UNM-0000306127] here?
Answer: > 30000 nM

Question: For `COc1ccc(-c2noc(CCCCC(=O)N3CCN(c4cc(C)ccc4C)CC3)n2)cc1` [1-[4-(2,5-dimethylphenyl)-1-piperazinyl]-5-[3-(4-methoxyphenyl)-1,2,4-oxadiazol-5-yl]-1-pentanone], which EC50 is on record?
Answer: 21000 nM

Question: For `COc1ccc(-c2ccc(CCC(=O)N3CCN(c4cc(C)ccc4C)CC3)o2)cc1` [KUC103447N], which EC50 is on record?
Answer: > 30000 nM

Question: `COc1ccc(-c2noc(CCC(=O)N3CCC(c4cc(C)ccc4C)CC3)n2)cc1` [KUC103432N] was tested. Which EC50 did it give?
Answer: 1220 nM

Question: With `Cc1ccc(C)c(N2CCN(C(=O)CCc3nc(-c4ccc(C(F)(F)F)cc4)no3)CC2)c1` [1-[4-(2,5-dimethylphenyl)-1-piperazinyl]-3-[3-[4-(trifluoromethyl)phenyl]-1,2,4-oxadiazol-5-yl]-1-propanone] as the molecule, how does the EC50 read?
Answer: 2190 nM

Question: `Cc1ccc(C)c(N2CCN(C(=O)CCc3nc(-c4ccc(Br)cc4)no3)CC2)c1` [UNM-0000306072] was tested. Which EC50 did it give?
Answer: 2970 nM

Question: Which EC50 does the source give for `Cc1ccc(C)c(N2CCN(C(=O)CCc3nc(-c4ccccc4Br)no3)CC2)c1` [3-[3-(2-bromophenyl)-1,2,4-oxadiazol-5-yl]-1-[4-(2,5-dimethylphenyl)-1-piperazinyl]-1-propanone] here?
Answer: 1710 nM

Question: How did the EC50 turn out when `Cc1ccc(C)c(N2CCN(C(=O)CCc3nc(-c4ccccc4C(F)(F)F)no3)CC2)c1` was run?
Answer: 2110 nM

Question: `COc1cccc(-c2noc(CCC(=O)N3CCN(c4cc(C)ccc4C)CC3)n2)c1` was tested. Which EC50 did it give?
Answer: 6120 nM

Question: How did the EC50 turn out when `COc1ccc(-c2noc(CCC(=O)N3CCN(c4cccc(Cl)c4)CC3)n2)cc1` was run?
Answer: > 30000 nM

Question: Which EC50 does the source give for `Cc1ccc(C)c(N2CCN(C(=O)CCc3nc(-c4ccc(N(C)C)cc4)no3)CC2)c1` [KUC103409N] here?
Answer: 2770 nM

Question: How did the EC50 turn out when `COc1ccc(-c2cc(CCC(=O)N3CCN(c4cc(C)ccc4C)CC3)[nH]n2)cc1` [UNM-0000306150] was run?
Answer: > 30000 nM

Question: `Cc1ccc(C)c(N2CCN(C(=O)CCc3nc(-c4cccc(F)c4)no3)CC2)c1` [KUC103366N] was tested. Which EC50 did it give?
Answer: 1480 nM

Question: How did the EC50 turn out when `COc1ccc(-c2noc(CCC(=O)N3CCN(c4cccc(C)c4)CC3)n2)cc1` [UNM-0000306125] was run?
Answer: > 30000 nM

Question: How did the EC50 turn out when `COc1ccc(-c2ccc(CCC(=O)N3CCN(c4cc(C)ccc4C)CC3)s2)cc1` was run?
Answer: > 30000 nM

Question: Which EC50 does the source give for `COc1ccc(-c2noc(CCC(=O)N3CCN(c4cccc(C(F)(F)F)c4)CC3)n2)cc1` [1-{3-[3-(4-methoxyphenyl)-1,2,4-oxadiazol-5-yl]propanoyl}-4-[3-(trifluoromethyl)phenyl]piperazine] here?
Answer: > 30000 nM

Question: Which EC50 does the source give for `Cc1ccc(C)c(N2CCN(C(=O)CCc3nc(-c4ccc(Cl)cc4)no3)CC2)c1` [UNM-0000306083] here?
Answer: 1830 nM

Question: Which EC50 does the source give for `COc1ccc(-c2noc(CCC(=O)N3CCN(c4ccccc4)CC3)n2)cc1` [3-[3-(4-methoxyphenyl)-1,2,4-oxadiazol-5-yl]-1-(4-phenylpiperazin-1-yl)propan-1-one] here?
Answer: > 30000 nM

Question: With `COc1ccc(-c2noc(CCC(=O)N3CCN(c4cc(C)ccc4C)CC3)n2)cc1` [1-[4-(2,5-dimethylphenyl)-1-piperazinyl]-3-[3-(4-methoxyphenyl)-1,2,4-oxadiazol-5-yl]-1-propanone] as the molecule, how does the EC50 read?
Answer: 5080 nM

Question: How did the EC50 turn out when `COc1ccc(-c2noc(CCC(=O)N3CCN(c4ccccc4Cl)CC3)n2)cc1` [1-[4-(2-chlorophenyl)piperazin-1-yl]-3-[3-(4-methoxyphenyl)-1,2,4-oxadiazol-5-yl]propan-1-one] was run?
Answer: 3340 nM

Question: Which EC50 does the source give for `COc1ccc(-c2noc(CCC(=O)N3CCN(c4ccccc4C(F)(F)F)CC3)n2)cc1` [UNM-0000306082] here?
Answer: 1690 nM

Question: With `Cc1cccc(-c2noc(CCC(=O)N3CCN(c4cc(C)ccc4C)CC3)n2)c1` [1-[4-(2,5-dimethylphenyl)piperazin-1-yl]-3-[3-(3-methylphenyl)-1,2,4-oxadiazol-5-yl]propan-1-one] as the molecule, how does the EC50 read?
Answer: 1220 nM

Question: How did the EC50 turn out when `Cc1ccc(C)c(N2CCN(C(=O)CCc3nc(-c4ccccc4F)no3)CC2)c1` [KUC103401N] was run?
Answer: 1820 nM

Question: With `COc1ccc(-c2noc(CCC(=O)N3CCN(c4ccc(C(F)(F)F)cc4)CC3)n2)cc1` [3-[3-(4-methoxyphenyl)-1,2,4-oxadiazol-5-yl]-1-[4-[4-(trifluoromethyl)phenyl]piperazin-1-yl]propan-1-one] as the molecule, how does the EC50 read?
Answer: > 30000 nM

Question: For `COc1ccc(-c2noc(CCCC(=O)N3CCN(c4cc(C)ccc4C)CC3)n2)cc1` [KUC103353N], which EC50 is on record?
Answer: 3790 nM

Question: With `Cc1ccc(C)c(N2CCN(C(=O)CCc3nc(-c4ccccc4C)no3)CC2)c1` as the molecule, how does the EC50 read?
Answer: 1730 nM

Question: How did the EC50 turn out when `COc1ccc(-c2noc(CCC(=O)N3CCN(c4cccc(OC)c4)CC3)n2)cc1` [KUC103349N] was run?
Answer: > 30000 nM

Question: Which EC50 does the source give for `COc1ccc(-c2cc(CCC(=O)N3CCN(c4cc(C)ccc4C)CC3)on2)cc1` [1-[4-(2,5-dimethylphenyl)piperazin-1-yl]-3-[3-(4-methoxyphenyl)-1,2-oxazol-5-yl]propan-1-one] here?
Answer: > 30000 nM

Question: `COc1ccc(-c2coc(CCC(=O)N3CCN(c4cc(C)ccc4C)CC3)n2)cc1` [1-[4-(2,5-dimethylphenyl)piperazin-1-yl]-3-[4-(4-methoxyphenyl)-1,3-oxazol-2-yl]propan-1-one] was tested. Which EC50 did it give?
Answer: 2200 nM

Question: Which EC50 does the source give for `COc1ccc(-c2noc(CCC(=O)N3CCN(c4ccccc4Br)CC3)n2)cc1` [KUC103370N] here?
Answer: 1700 nM

Question: How did the EC50 turn out when `Cc1ccc(C)c(N2CCN(C(=O)CCc3nc(-c4ccc(F)cc4)no3)CC2)c1` [KUC103364N] was run?
Answer: 1270 nM

Question: How did the EC50 turn out when `COc1ccc(-c2noc(CCC(=O)N3CCN(c4cccc(C)c4C)CC3)n2)cc1` [1-[4-(2,3-dimethylphenyl)-1-piperazinyl]-3-[3-(4-methoxyphenyl)-1,2,4-oxadiazol-5-yl]-1-propanone] was run?
Answer: 1310 nM

Question: With `COc1ccc(-c2noc(CCC(=O)N3CCN(c4ccccc4F)CC3)n2)cc1` [1-[4-(2-fluorophenyl)piperazin-1-yl]-3-[3-(4-methoxyphenyl)-1,2,4-oxadiazol-5-yl]propan-1-one] as the molecule, how does the EC50 read?
Answer: 1110 nM

Same assay, conditions: inactive by the depositor's call

Question: With `COc1ccc(-c2noc(CCC(=O)N3CCN(c4ccc(F)cc4)CC3)n2)cc1` [KUC103398N] as the molecule, how does the EC50 read?
Answer: 1590 nM

Question: With `COc1ccc(-c2noc(CCC(=O)N3CCN(c4ccc(OC)cc4)CC3)n2)cc1` [3-[3-(4-methoxyphenyl)-1,2,4-oxadiazol-5-yl]-1-[4-(4-methoxyphenyl)piperazin-1-yl]propan-1-one] as the molecule, how does the EC50 read?
Answer: 527 nM

Question: How did the EC50 turn out when `COc1ccc(-c2noc(CC(=O)N3CCN(c4cc(C)ccc4C)CC3)n2)cc1` [1-[4-(2,5-dimethylphenyl)piperazin-1-yl]-2-[3-(4-methoxyphenyl)-1,2,4-oxadiazol-5-yl]ethanone] was run?
Answer: 7520 nM

Question: Which EC50 does the source give for `COc1ccc(-c2noc(CCC(=O)N3CCN(c4ccccc4OC)CC3)n2)cc1` [3-[3-(4-methoxyphenyl)-1,2,4-oxadiazol-5-yl]-1-[4-(2-methoxyphenyl)-1-piperazinyl]-1-propanone] here?
Answer: 2290 nM

Question: With `COc1ccc(-c2noc(CCC(=O)N3CCN(c4ccc(Br)cc4)CC3)n2)cc1` [1-[4-(4-bromophenyl)piperazin-1-yl]-3-[3-(4-methoxyphenyl)-1,2,4-oxadiazol-5-yl]propan-1-one] as the molecule, how does the EC50 read?
Answer: 257 nM

Question: How did the EC50 turn out when `COc1ccccc1-c1noc(CCC(=O)N2CCN(c3cc(C)ccc3C)CC2)n1` [UNM-0000306071] was run?
Answer: 15100 nM

Question: How did the EC50 turn out when `COc1ccc(-c2noc(CCC(=O)N3CCN(c4ccc(C)cc4)CC3)n2)cc1` [3-[3-(4-methoxyphenyl)-1,2,4-oxadiazol-5-yl]-1-[4-(4-methylphenyl)piperazin-1-yl]propan-1-one] was run?
Answer: 2690 nM

Question: How did the EC50 turn out when `Cc1ccc(C)c(N2CCN(C(=O)CCc3nc(-c4ccccc4)no3)CC2)c1` [UNM-0000306070] was run?
Answer: 1640 nM
